Experimental findings from publication PMC10945480 (Journal of Medicinal Chemistry, 2024) are described below.

The test system of one assay is breast cancer MDA-MB-231. The assay can be described thus: Cell viability, resazurin assay, MDA-MB-231. The note with it: Homo sapiens, MDA-MB-231, 24 h, read-out: MDA-MB-231 IC50. A general note: Resazurin is reduced to fluorescent resorufin, in cell work by metabolically active cells.
The test system of another assay is A549 cancer cells. Description: Platelet-enhanced tumor cell proliferation. It counts as cell-based, human. Conditions: A549 plus platelets, 48 h, 0.5 to 2 μM. As to the method:
In order to examine platelet-enhanced cancer cell growth, A549 cancer cells were coincubated with platelets for 48 h.
Figure 5 Inhibitory effects of JUG derivatives 18 and 22 on tumor cell-induced platelet secretion and platelet-enhanced tumor cell proliferation. (a) Washed human platelets were coincubated with A549 cancer cells under the same conditions as described in Figure 4. Secretion of PDGF and ATP were determined with the enzyme-linked immunosorbent assay (ELISA) and bioluminescent assay, respectively. (b) A549 cancer cells were coincubated with washed human platelets at 37 °C and 5% CO2 in a cell culture incubator for 48 h. After washing with PBS, the numbers of viable cancer cells were determined by trypan blue exclusion. Data are mean ± SEM of at least three independent experiments. In (a), *P < 0.05; **P < 0.01; ***P < 0.001 as compared with vehicle control (DMSO). In (b), *P < 0.05; **P < 0.01; ***P < 0.001 as compared with A549 cells plus platelets.
A549 cells (1 × 10^4 cells/well) were seeded in a 96-well plate and coincubated with wash human platelets (1 × 10^7 cells/well) containing with 0.375% plasma for 48 h at 37 °C and 5% CO2 in a cell culture incubator. After washing with phosphate buffered saline, the numbers of viable cancer cells were determined by trypan blue exclusion.

The test system of a further assay is glioma U87. The assay can be described thus: Cell viability, resazurin assay, U87. The note with it: Homo sapiens, 24 h, read-out: U87 IC50.
Another assay concerns lung cancer A549. The assay can be described thus: Cell viability, resazurin assay, A549. Conditions: Homo sapiens, A549, 24 h, read-out: A549 IC50.
Assay [1] relates to washed human platelets. The assay can be described thus: Collagen-induced platelet aggregation. In kind it is cell-based. The note with it: Platelet; washed human platelets, collagen (5 μg/mL). In outline:
(§1)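 Washed platelets from ACD-anticoagulated blood of healthy donors, stirred at 1200 rpm, 37 °C in a turbidimetric aggregometer. Aggregation triggered by U46619 or collagen, scored as maximal rise in light transmission.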

Assay [2] has as its system washed human platelets. The assay can be described thus: U46619-induced platelet aggregation. It counts as cell-based. The note with it: Platelet; washed human platelets, U46619 (1 μM). The essentials:
as §1

In assay [3] the target is purified human recombinant PDI (rPDI) (Homo sapiens, UniProt P07237). Description: Recombinant PDI reductase activity (Di-E-GSSG assay).
purified human recombinant PDI (rPDI), sequence (P07237 18-508): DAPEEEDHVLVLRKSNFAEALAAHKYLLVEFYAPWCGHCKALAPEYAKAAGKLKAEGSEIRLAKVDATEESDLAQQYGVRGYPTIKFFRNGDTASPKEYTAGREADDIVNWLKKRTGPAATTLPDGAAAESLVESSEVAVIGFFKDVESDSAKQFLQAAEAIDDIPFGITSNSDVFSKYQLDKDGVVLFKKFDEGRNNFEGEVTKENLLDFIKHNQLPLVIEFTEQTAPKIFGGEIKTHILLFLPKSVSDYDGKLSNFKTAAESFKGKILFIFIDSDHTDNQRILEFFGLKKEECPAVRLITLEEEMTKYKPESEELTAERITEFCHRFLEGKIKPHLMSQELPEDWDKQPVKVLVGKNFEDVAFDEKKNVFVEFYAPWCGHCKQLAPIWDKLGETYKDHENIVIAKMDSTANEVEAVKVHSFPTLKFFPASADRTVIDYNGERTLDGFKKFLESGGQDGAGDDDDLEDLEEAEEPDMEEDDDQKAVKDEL
Procedure: In this assay, a nonfluorescent substrate, dieosin glutathione disulfide (Di-E-GSSG), was reduced into a fluorescent product eosin-glutathione (E-GSH) by platelet surface PDI in the presence of 5 μM dithiothreitol (DTT).

Molecules are shown by their SMILES. A value given as a limit tells only on which side of the number the result lay.

Procedure for breast cancer MDA-MB-231: (§2) Cells were maintained in a humidified incubator at 37 °C in 5% CO2, and cell viability was determined with the resazurin assay (Cayman Chemical, USA) after the incubation with compounds for indicated concentrations and times or DMSO as control.[72]
Procedure for glioma U87: as §2
Procedure for lung cancer A549: as §2

Broadly, the IC50 is the concentration at which inhibition is half-maximal. Consider `CC(=O)OC1O[C@H](CSC2=CC(=O)c3cccc(O)c3C2=O)[C@@H](OC(C)=O)C(OC(C)=O)[C@H]1OC(C)=O` (stereo in doubt) [Compound 18, 2-(1,2,3,4-Tetra-O-acetyl-6-deoxy-6-thio-α-D-glucopyranose)-8-hydroxynaphthalene-1,4-dione], for which the IC50 is 6.96 ± 0.47 µM in the assay on breast cancer MDA-MB-231; greater than 20 µM with glioma U87; 36.8 ± 1.93 µM in the assay on lung cancer A549; 0.56 ± 0.17 µM in the assay on washed human platelets [1]; 0.95 ± 0.1 µM in the assay on washed human platelets [2]; 1.87 ± 0.56 µM in assay [3]. Besides, the “platelet-enhanced cancer cell growth” value in the assay on A549 cancer cells is “blunted platelet-enhanced cancer cell growth”.
